According to article PMC6225322, “Development of Kinase Inhibitors via Metal-Catalyzed C–H Arylation of 8-Alkyl-thiazolo[5,4-f]-quinazolin-9-ones Designed by Fragment-Growing Studies” (Molecules : A Journal of Synthetic Chemistry and Natural …, 2018):

Experiments:
CDK5/p25 = biological target: T1, CDK5/p25 (Homo sapiens, UniProt Q00535); assay: CDK5/p25 in vitro kinase assay (33P-ATP, histone H1); type: biochemical
T1 construct: made in house

DYRK1A = DYRK1A (Homo sapiens, UniProt Q13627); assay: DYRK1A in vitro kinase assay (Woodtide); type: biochemical
Method: (§1) Products of series 2a–j, 3a–c, 4a–f, 9a–i, and 10 were evaluated in five different in vitro kinase assays: CDK5/p25, CK1δ/ε (casein kinase 1), GSK-3α/β, DYRK1A (dual-specificity, tyrosine phosphorylation regulated kinase), and CLK1 [37, 38, 39].
(§2) Controls were performed with appropriate dilutions of dimethyl sulfoxide (DMSO).

CLK1 = CLK1 (Homo sapiens, UniProt P49759); assay: CLK1 in vitro kinase assay (RS peptide); type: biochemical
CK1δ/ε = CK1δ/ε in vitro kinase assay (CKS peptide); type: biochemical, porcine; conditions: Table 4; ATP 15 μM, triplicate; <50% inhibition at 10 μM = IC50 >10 μM
Method: as §1, §2
CK1δ/ε (porcine brain, native) was assayed as described for CDK1, but in buffer B, and using 25 μM CKS peptide ([…]pSAYSITA), a CK1-specific substrate.

GSK-3α/β = GSK-3α/β in vitro kinase assay (GS-1 peptide); type: biochemical, porcine; conditions: Table 4; ATP 15 μM, triplicate; <50% inhibition at 10 μM = IC50 >10 μM
Method: as §1, §2
GSK-3α/β (porcine brain, native) was assayed, in buffer A, with 0.5 mg BSA/mL + 1 mM DTT, using GS-1 ([…]pEDEEE) (pS stands for phosphorylated serine), a GSK-3 specific substrate, in the presence of 15 μmol/L [γ-^33P] ATP (3000 Ci/mmol; 10 mCi/mL) in a final volume of 30 μL. After 30 min incubation at 30 °C, the reaction was stopped by harvesting onto P81 phosphocellulose […] (Whatman, Dutscher SAS, Brumath, France) using a FilterMate harvester (PerkinElmer, Courtaboeuf, France), and were washed in 1% phosphoric acid. Scintillation fluid was added, and the radioactivity measured in a Packard counter.

T1 sequence (Q00535 whole entry): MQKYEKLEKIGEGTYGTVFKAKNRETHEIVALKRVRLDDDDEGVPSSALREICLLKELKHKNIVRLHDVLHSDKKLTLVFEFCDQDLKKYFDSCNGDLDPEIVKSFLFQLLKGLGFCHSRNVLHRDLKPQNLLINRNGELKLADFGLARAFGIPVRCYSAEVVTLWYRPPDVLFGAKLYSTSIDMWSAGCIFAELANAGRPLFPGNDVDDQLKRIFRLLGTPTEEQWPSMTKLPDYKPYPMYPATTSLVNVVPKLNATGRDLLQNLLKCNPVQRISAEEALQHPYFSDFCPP
T1 sequence (Q15078 99-307 partner limits assumed): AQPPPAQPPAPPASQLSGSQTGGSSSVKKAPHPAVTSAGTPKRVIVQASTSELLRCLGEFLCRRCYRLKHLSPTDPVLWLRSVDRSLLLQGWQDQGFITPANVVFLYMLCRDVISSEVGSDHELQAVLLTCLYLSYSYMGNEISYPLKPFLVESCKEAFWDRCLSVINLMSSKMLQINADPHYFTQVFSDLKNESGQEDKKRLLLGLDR
Chain of CLK1 (P49759 whole entry): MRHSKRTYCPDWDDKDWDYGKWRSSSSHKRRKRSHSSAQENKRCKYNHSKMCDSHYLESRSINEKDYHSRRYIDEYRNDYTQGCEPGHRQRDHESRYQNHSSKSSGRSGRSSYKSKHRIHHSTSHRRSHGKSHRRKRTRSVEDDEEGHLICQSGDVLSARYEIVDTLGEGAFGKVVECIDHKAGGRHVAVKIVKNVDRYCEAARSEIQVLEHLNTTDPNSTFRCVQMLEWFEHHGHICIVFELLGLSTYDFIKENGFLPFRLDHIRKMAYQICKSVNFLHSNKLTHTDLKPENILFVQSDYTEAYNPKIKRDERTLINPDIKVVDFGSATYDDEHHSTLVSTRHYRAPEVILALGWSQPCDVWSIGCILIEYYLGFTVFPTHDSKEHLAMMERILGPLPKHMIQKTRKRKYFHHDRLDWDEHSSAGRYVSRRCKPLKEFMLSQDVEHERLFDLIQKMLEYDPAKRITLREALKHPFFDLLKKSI

Row | IC50 (CDK5/p25) [µM] | IC50 (DYRK1A) [µM] | DYRK inhibitory activity (in words) (DYRK1A; SAR discussion) | IC50 (CLK1) [µM] | IC50 (CK1δ/ε) [µM] | IC50 (GSK-3α/β) [µM] | Compound
1 |  | > 10 |  | > 10 | > 10 | > 10 | O=c1c2c(ccc3nc(-c4cccnc4)sc32)ncn1C1CCCC1 [4e, 8-Cyclopentyl-2-(pyridin-3-yl)thiazolo[5,4-f]quinazolin-9(8H)-one]
2 |  | > 10 |  | > 10 | > 10 | > 10 | CC(C)n1cnc2ccc3nc(-c4cccnc4)sc3c2c1=O [4b, 8-Isopropyl-2-(pyridin-3-yl)thiazolo[5,4-f]quinazolin-9(8H)-one]
3 |  | > 10 |  | > 10 | > 10 | > 10 | O=c1c2c(ccc3nc(-c4cccnc4)sc32)ncn1C1CCC1 [4d, 8-Cyclobutyl-2-(pyridin-3-yl)thiazolo[5,4-f]quinazolin-9(8H)-one]
4 |  | > 10 |  | > 10 | > 10 | > 10 | O=c1c2c(ccc3nc(-c4cccnc4)sc32)ncn1C1CCCCC1 [4f, 8-Cyclohexyl-2-(pyridin-3-yl)thiazolo[5,4-f]quinazolin-9(8H)-one]
5 |  | 0.011 |  | 0.018 | 6 | 0.068 | O=c1c2c(ccc3nc(-c4cccnc4)sc32)ncn1C1CC1 [4c, 8-Cyclopropyl-2-(pyridin-3-yl)thiazolo[5,4-f]quinazolin-9(8H)-one]
6 |  | > 10 |  | > 10 | > 10 | > 10 | Cn1cnc2ccc3nc(-c4cccnc4)sc3c2c1=O [4a, 8-Methyl-2-(pyridin-3-yl)thiazolo[5,4-f]quinazolin-9(8H)-one]

More lines, now with the values behind:

Row | Compound | IC50 (CDK5/p25) [µM] | IC50 (DYRK1A) [µM] | DYRK inhibitory activity (in words) (DYRK1A; SAR discussion) | IC50 (CLK1) [µM] | IC50 (CK1δ/ε) [µM] | IC50 (GSK-3α/β) [µM]
7 | COc1ncccc1-c1nc2ccc3ncn(C4CC4)c(=O)c3c2s1 [compound 10] | > 10 | > 10 | inactive | > 10 | > 10 | ≥ 10
8 | O=c1c2c(ccc3nc(-c4cccnc4)sc32)ncn1Cc1ccccc1 [3a] | > 10 | 0.012 |  | 2 | > 10 | 3.7
9 | O=c1c2c(ccc3nc(-c4cnccn4)sc32)ncn1Cc1ccccc1 [3b] | > 10 | 0.133 |  | 3.33 | > 10 | 6
10 | COc1ccc2c(c1)[nH]c1c(C)nccc12 [Harmine, reference compound] |  |  |  |  | 1.5 | > 10
